Among the test systems are KM12 colon; DU-145 prostate; SF-539 CNS; NCI-H522 lung; LOX IMVI melanoma; OVCAR-3 ovarian; BT-549 breast; SW-620 colon; SF-295 CNS; T-47D breast.
What all share (experiment): NCI-60 cell line screen, 48 h

Among the data in PubChem BioAssay (NCI) are TGI and GI50 values, retold here.

The structures appear in SMILES notation. Values joined by “and” are separate entries in the source; they are usually repeats but may differ in a detail not shown here. Identical values can stand only once.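 Dose response: 5 concentrations. Exposure: 48 h. Format: 96-well plates. Endpoint: linear interpolation; highest concentration if not reached. GI50: concentration for 50% inhibition of growth. TGI: concentration producing complete growth inhibition.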

Regarding `CCN(CC)CC(O)CNc1ccc(NCC2CO2)c2c1C(=O)c1ccccc1C2=O` (configuration not stated), the TGI in the test on KM12 colon is 1.74 µM; in the test with DU-145 prostate it was 5.04 µM; in the test on SF-539 CNS, 3.08 µM; in the test with NCI-H522 lung, 2.41 µM; in the test with LOX IMVI melanoma it was 0.0392 µM and 0.0576 µM; in the test with OVCAR-3 ovarian it was 2.69 µM. Also, the values for the TGI in the test on BT-549 breast, in the test with SW-620 colon and with SF-295 CNS were 4.27 µM, 0.797 µM and 4.6 µM, respectively. Also, the GI50 in the test with NCI-H522 lung was 0.958 µM; in the test on LOX IMVI melanoma, 0.00454 µM; in the test with OVCAR-3 ovarian it was 0.299 µM; in the test with BT-549 breast, 1.22 µM; with SW-620 colon, 0.0713 µM.
For `Cc1cc(I)cc(CN(C)CCCN2CCSCC2)c1O`, the GI50 in the test on KM12 colon was 37.2 µM; in the test on DU-145 prostate, 41 µM; with SF-539 CNS it was 23.4 µM; with NCI-H522 lung, 23.6 µM; in the test on LOX IMVI melanoma, 17.2 µM; in the test on OVCAR-3 ovarian, 29.7 µM. The GI50 is 31.3 µM in the test with T-47D breast, 14.8 µM with BT-549 breast and 19.4 µM in the test on SW-620 colon. Besides, the TGI in the test on KM12 colon is over 100 µM; in the test on DU-145 prostate, over 100 µM; with SF-539 CNS, 62.7 µM; in the test on NCI-H522 lung, 55.9 µM; in the test with LOX IMVI melanoma it was 33.5 µM; with OVCAR-3 ovarian, over 100 µM. The TGI is over 100 µM in the test with T-47D breast, 32.6 µM in the test on BT-549 breast and 38.9 µM in the test with SW-620 colon.
On to `CN(C)C=Nc1cccc2nsnc12`, for which the TGI in the test on DU-145 prostate, in the test with SF-539 CNS, in the test with NCI-H522 lung, in the test with LOX IMVI melanoma, in the test on OVCAR-3 ovarian and with T-47D breast was over 100 µM throughout. For the same compound, the TGI in the test on BT-549 breast and in the test on SF-295 CNS was over 100 µM throughout.
Take `CC1(C)C2CCC3=C(CCC4(C)C5C[C@](C)(C(=O)O)CC[C@]5(C)CC[C@]34C)[C@@]2(C)CC[C@@H]1O` (some centres not stated): the TGI in the test on KM12 colon is 33.6 µM; with DU-145 prostate, 34.5 µM; in the test with SF-539 CNS it was over 100 µM; in the test with NCI-H522 lung it was 40.8 µM; in the test on LOX IMVI melanoma it was 31.2 µM; in the test on OVCAR-3 ovarian it was 29.8 µM. Moreover, the figures for the TGI with T-47D breast, in the test on BT-549 breast and in the test on SW-620 colon were 38.4 µM, 39.1 µM and 32.3 µM, respectively.
As for `O=C(/C=C/c1ccc(F)cc1)c1ccc(Cl)cc1Cl`, the GI50 in the test with KM12 colon is 38.1 µM; in the test on DU-145 prostate, 53.4 µM; in the test with SF-539 CNS, over 100 µM; with NCI-H522 lung, 47.7 µM; in the test with LOX IMVI melanoma, 41.1 µM; in the test on OVCAR-3 ovarian, 25.8 µM. The GI50 in the test with BT-549 breast was 27.2 µM; in the test with SW-620 colon, 29.7 µM; in the test with SF-295 CNS it was 77.3 µM. The TGI in the test with KM12 colon is over 100 µM; in the test with DU-145 prostate, over 100 µM; in the test on SF-539 CNS it was over 100 µM; in the test with NCI-H522 lung, over 100 µM; in the test with LOX IMVI melanoma it was over 100 µM; in the test with OVCAR-3 ovarian, 73 µM. Moreover, the TGI in the test on BT-549 breast is 71.6 µM; in the test with SW-620 colon it was 79.2 µM; in the test on SF-295 CNS, over 100 µM.
For the compound `Nc1c(C(=O)c2ccc(Cl)cc2)sc(Nc2ccccc2)c1-c1nc2ccccc2s1`, the GI50 was 0.812 µM in the test with KM12 colon; 2.63 µM in the test with SF-539 CNS; 3.13 µM with NCI-H522 lung; 3.25 µM in the test with LOX IMVI melanoma; 1.46 µM in the test on T-47D breast; 2.29 µM with BT-549 breast. Moreover, the GI50 was 1.2 µM with SW-620 colon and 2.18 µM in the test on SF-295 CNS. Also, the TGI with KM12 colon is over 100 µM; in the test with SF-539 CNS, over 100 µM; in the test with NCI-H522 lung it was over 74.1 µM; in the test on LOX IMVI melanoma, over 100 µM; with T-47D breast, over 100 µM; in the test on BT-549 breast, 19.5 µM. In addition, the TGI is over 100 µM in the test with SW-620 colon and 10.8 µM with SF-295 CNS.
Regarding `CC(=O)Nc1ccc(C(=O)NN2C(=O)C(Cl)C2c2ccc(Cl)cc2)cc1` (configuration not stated), the TGI in the test with KM12 colon is over 100 µM; in the test with DU-145 prostate, over 100 µM; in the test with SF-539 CNS, over 54.2 µM; in the test on NCI-H522 lung, over 100 µM; in the test with OVCAR-3 ovarian, 52.3 µM; in the test with T-47D breast it was over 100 µM. For the same compound, the TGI with BT-549 breast was over 100 µM; in the test on SW-620 colon it was over 100 µM; in the test on SF-295 CNS, 44.7 µM.
Regarding `CCN(CC)C(=C(C(Cl)=C(Cl)Cl)[N+](=O)[O-])N(CC)CC`, the TGI in the test with KM12 colon, with DU-145 prostate, with SF-539 CNS, in the test with LOX IMVI melanoma, in the test with OVCAR-3 ovarian and with T-47D breast was over 100 µM throughout. Also, the TGI in the test with BT-549 breast, with SW-620 colon and with SF-295 CNS was over 100 µM in each case.
`Cn1ccnc1CC(C)(O)c1ccccc1` (configuration not stated): the TGI in the test on KM12 colon, in the test on DU-145 prostate, in the test on SF-539 CNS, in the test on NCI-H522 lung, with LOX IMVI melanoma and with OVCAR-3 ovarian was over 100 µM each time. The TGI with BT-549 breast, in the test with SW-620 colon and in the test on SF-295 CNS was over 100 µM throughout.
`Nc1ccc(N(S(=O)(=O)c2ccccc2)S(=O)(=O)c2ccccc2)c(Cl)c1`: the TGI in the test with KM12 colon, with DU-145 prostate, in the test with SF-539 CNS, in the test on NCI-H522 lung, in the test with LOX IMVI melanoma and in the test on T-47D breast was over 100 µM in each case. Besides, the TGI with BT-549 breast, in the test with SW-620 colon and with SF-295 CNS was over 100 µM in each case.
Turning to `O=S(=O)(NC1=NCCN1C(=S)SN1CCn2c1nsc2=S)c1ccc(Br)cc1`, the GI50 was 25.5 µM in the test with KM12 colon; 28.9 µM in the test on DU-145 prostate; 18.6 µM with SF-539 CNS; 15 µM in the test with NCI-H522 lung; 19.4 µM in the test on LOX IMVI melanoma; 23.8 µM in the test with OVCAR-3 ovarian. The GI50 in the test with T-47D breast is 43.5 µM; in the test on SW-620 colon, 24.2 µM; in the test on SF-295 CNS it was 46.2 µM. For the same compound, the TGI was over 100 µM in the test with KM12 colon; over 100 µM in the test on DU-145 prostate; 38.9 µM in the test on SF-539 CNS; 36.8 µM in the test on NCI-H522 lung; 39.6 µM in the test with LOX IMVI melanoma; over 100 µM in the test with OVCAR-3 ovarian. The TGI is over 100 µM in the test on T-47D breast, 73 µM with SW-620 colon and over 100 µM in the test with SF-295 CNS.
